Assay [1] in a line: Inhibition of mouse GAT4-mediated [3H]GABA uptake stably transfected in HEK293 cells. In kind it is cell-based.
The target in assay [2] is T1, Sodium- and chloride-dependent GABA transporter 1 (Mus musculus, UniProt P31648). Description: Inhibition of mouse GAT1-mediated [3H]GABA uptake stably transfected in HEK293 cells. The assay is classed as cell-based.
In assay [3] the target is Sodium- and chloride-dependent GABA transporter 1 (Mus musculus) (UniProt P31648). Briefly: Binding affinity to mouse GAT1 stably transfected in HEK293 cells assessed as residual binding at 100 uM relative to control. The assay is classed as cell-based.
For assay [4] the target is unchanged. Briefly: Inhibition of mouse GAT1-mediated [3H]GABA uptake stably transfected in HEK293 cells assessed as residual uptake at 100 uM relative to control. In kind it is cell-based.
Assay [5] deals with T1, Sodium- and chloride-dependent GABA transporter 1. Description: Binding affinity to mouse GAT1 stably transfected in HEK293 cells by NO-711 binding assay. In kind it is cell-based.
Assay [6] concerns GABA transporter 3 (Mus musculus). Description: Inhibition of mouse GAT3-mediated [3H]GABA uptake stably transfected in HEK293 cells assessed as residual uptake at 100 uM relative to control.
The subject of assay [7] is GABA transporter 2 (Mus musculus). Briefly: Inhibition of mouse GAT2-mediated [3H]GABA uptake stably transfected in HEK293 cells assessed as residual uptake at 100 uM relative to control.
Assay [8] relates to HEK293. Briefly: Inhibition of mouse GAT4-mediated [3H]GABA uptake stably transfected in HEK293 cells assessed as residual uptake at 100 uM relative to control. In kind it is cell-based.

Usually IC50 stands for the concentration at which inhibition is half-maximal. Low values mean greater potency, high ones weaker potency. For orientation: Ki means a dissociation constant, usually derived from enzyme kinetics or from competition with a known ligand. Read a high Ki as a looser hold on the target.

For the compound `Cc1ccc(CNC(=O)C(CCO)N(C)CCC=C(c2ccccc2)c2ccccc2)cc1` (stereo unspecified), the IC50 was 16.6 µM in assay [1] and 22.4 µM in assay [2]. Also, in assay [3], the Activity was determined as 50%.
Consider `CN(CCC=C(c1ccccc1)c1ccccc1)C(CCO)C(=O)NCc1ccc(F)cc1` (stereo unspecified), for which the half-inhibitory concentration (IC50) in assay [1] was 20 µM; in assay [2], 21.9 µM. In addition, the Activity in assay [3] came out at 73%.
On to `O=C(NCc1ccccc1Cl)C(CCO)N1CCC(=C(c2ccccc2)c2ccccc2)CC1` (stereo unspecified), for which the Activity in assay [4] was found to be 58%; in assay [3], 68%. The midpoint of inhibition in assay [1], the IC50, lay at 67.6 µM.
For the compound `Cc1ccc(CNC(=O)C(CCO)N(C)CCCC(c2ccccc2)c2ccccc2)cc1` (stereo unspecified), affinity in assay [5] was put at a Ki of 81.3 µM. In addition, the half-inhibitory concentration (IC50) in assay [1] is 20.4 µM; in assay [2], 37.2 µM.
For `O=C(NCc1ccccc1Cl)C(CCO)NCCCC(c1ccccc1)c1ccccc1` (stereo unspecified), the affinity in assay [5], expressed as Ki, was 46.8 µM. Moreover, the IC50 in assay [1] was 20.9 µM; in assay [2] it was 33.1 µM.
With `CN(CCCC(c1ccccc1)c1ccccc1)C(CCO)C(=O)NCc1ccccc1` (stereo unspecified), the values for the IC50 in assay [1] and in assay [2] were 36.3 µM and 58.9 µM, respectively. Further, the Activity in assay [3] amounted to 79%.
`Cc1ccc(CNC(=O)C(CCO)N2CCC(C(c3ccccc3)c3ccccc3)CC2)cc1` (stereo unspecified): the concentration for half-maximal inhibition (IC50) is 87.1 µM in assay [1] and 30.2 µM in assay [2]. In addition, the Activity in assay [3] amounted to 55%.
The like results for `CN(CCC=C(c1ccccc1)c1ccccc1)C(CCO)C(=O)NCc1ccccc1` (stereo unspecified) were, in that order, 22.9 µM, 10.5 µM and 50%.
Consider `C[C@@H](O)C[C@H](C(=O)NCc1ccccc1Cl)N1CCC(=C(c2ccccc2)c2ccccc2)CC1` (relative stereo), for which the Activity amounted to 79% in assay [6]; 69% in assay [7]; 95% in assay [4]; 99% in assay [8]; 99% in assay [3].
In the case of `O=C(NCc1ccc(F)cc1)C(CCO)N1CCC(C(c2ccccc2)c2ccccc2)CC1` (stereo unspecified), the IC50 was 81.3 µM in assay [1] and 18.2 µM in assay [2]. Moreover, the Activity in assay [3] came to 49%.
In turn, `Cc1ccc(CNC(=O)C(CCO)N2CCC(=C(c3ccccc3)c3ccccc3)CC2)cc1` (stereo unspecified) showed a Ki in assay [5] of 43.7 µM. Also, the IC50 in assay [1] was 33.9 µM; in assay [2], 38 µM.
As for `O=C(NCc1ccccc1)C(CCO)N1CCC(C(c2ccccc2)c2ccccc2)CC1` (stereo unspecified), the Activity in assay [7] amounted to 51%; in assay [3], 55%. In addition, the 50% inhibitory concentration (IC50) in assay [1] was 58.9 µM; in assay [2], 13.2 µM.
Take `C[C@H](O)C[C@H](C(=O)NCc1ccc(F)cc1)N1CCC(=C(c2ccccc2)c2ccccc2)CC1` (relative stereo): the values for the Activity in assay [8] and in assay [3] were 65% and 52%, respectively. This compound showed a half-inhibitory concentration (IC50) in assay [2] of 34.7 µM.
In the case of `CN(CCCC(c1ccccc1)c1ccccc1)C(CCO)C(=O)NCc1ccc(F)cc1` (stereo unspecified), the IC50 in assay [1] is 58.9 µM; in assay [2], 97.7 µM. In addition, the Activity in assay [3] amounted to 74%.
For the compound `O=C(NCc1ccccc1)C(CCO)NCCCC(c1ccccc1)c1ccccc1` (stereo unspecified), the 50% inhibitory concentration (IC50) in assay [1] was 38.9 µM; in assay [2] it was 61.7 µM. Further, in assay [3], the Activity is 62%.
The like results for `CN(CCCC(c1ccccc1)c1ccccc1)C(CCO)C(=O)NCc1ccc(Cl)cc1` (stereo unspecified) were, in that order, 22.9 µM, 38.9 µM and 67%.
Regarding `CN(CCCC(c1ccccc1)c1ccccc1)C(CCO)C(=O)NCc1ccccc1Cl` (stereo unspecified), the IC50 in assay [1] is 25.7 µM; in assay [2], 37.2 µM. Besides, the Activity in assay [3] was 85%.
Compound `Cc1ccc(CNC(=O)C(CCO)NCCCC(c2ccccc2)c2ccccc2)cc1` (stereo unspecified) had a Ki in assay [5] of 51.3 µM. The results for the concentration for half-maximal inhibition (IC50) in assay [1] and in assay [2] were 23.4 µM and 55 µM, respectively.
`Cc1ccc(CNC(=O)[C@@H](C[C@@H](C)O)N2CCC(=C(c3ccccc3)c3ccccc3)CC2)cc1` (relative stereo): the figures for the Activity in assay [4] and in assay [3] were 46% and 58%, respectively.
As for `C[C@H](O)C[C@H](C(=O)NCc1ccccc1)N1CCC(=C(c2ccccc2)c2ccccc2)CC1` (relative stereo), the concentration for half-maximal inhibition (IC50) in assay [1] was 72.4 µM; in assay [2] it was 24 µM. Also, the Activity in assay [3] came out at 51%.
In assay [5], `C[C@@H](O)C[C@H](C(=O)NCc1ccc(F)cc1)N1CCC(=C(c2ccccc2)c2ccccc2)CC1` (relative stereo) showed an inhibition constant Ki of 42.7 µM. Moreover, the results for the IC50 in assay [1] and in assay [2] were 41.7 µM and 16.2 µM, respectively.
Turning to `C[C@H](O)C[C@H](C(=O)NCc1ccc(Cl)cc1)N1CCC(=C(c2ccccc2)c2ccccc2)CC1` (relative stereo), the 50% inhibitory concentration (IC50) in assay [1] was 69.2 µM; in assay [2], 66.1 µM. Also, in assay [3], the Activity came out at 69%.
With `O=C(NCc1ccc(F)cc1)C(CCO)NCCCC(c1ccccc1)c1ccccc1` (stereo unspecified), the values for the 50% inhibitory concentration (IC50) in assay [1] and in assay [2] were 25.1 µM and 38.9 µM, respectively. Further, the Activity in assay [3] worked out at 82%.
The like results for `C[C@@H](O)C[C@H](C(=O)NCc1ccccc1)N1CCC(=C(c2ccccc2)c2ccccc2)CC1` (relative stereo) were, in that order, 89.1 µM, 7.76 µM and 50%.
Regarding `C[C@H](O)C[C@H](C(=O)NCc1ccccc1Cl)N1CCC(=C(c2ccccc2)c2ccccc2)CC1` (relative stereo), the Activity amounted to 73% in assay [7], 47% in assay [4], 71% in assay [8] and 95% in assay [3].
On to `O=C(NCc1ccc(Cl)cc1)C(CCO)N1CCC(C(c2ccccc2)c2ccccc2)CC1` (stereo unspecified), for which the 50% inhibitory concentration (IC50) is 69.2 µM in assay [1] and 24 µM in assay [2]. In assay [3], the Activity came to 68%.
In assay [5], `O=C(NCc1ccc(Cl)cc1)C(CCO)N1CCC(=C(c2ccccc2)c2ccccc2)CC1` (stereo unspecified) had a Ki of 75.9 µM. Moreover, the 50% inhibitory concentration (IC50) in assay [1] is 17.8 µM; in assay [2], 33.9 µM.
For the compound `CN(CCC=C(c1ccccc1)c1ccccc1)C(CCO)C(=O)NCc1ccc(Cl)cc1` (stereo unspecified), the concentration for half-maximal inhibition (IC50) in assay [1] was 11.2 µM; in assay [2], 23.4 µM. For the same compound, the Activity in assay [3] was 61%.
For `O=C(NCc1ccccc1Cl)C(CCO)N1CCC(C(c2ccccc2)c2ccccc2)CC1` (stereo unspecified), in that order: 67.6 µM, 19.5 µM and 89%.
For `Cc1ccc(CNC(=O)[C@@H](C[C@H](C)O)N2CCC(=C(c3ccccc3)c3ccccc3)CC2)cc1` (relative stereo), in that order: 34.7 µM, 53.7 µM and 57%.
The like results for `CN(CCC=C(c1ccccc1)c1ccccc1)C(CCO)C(=O)NCc1ccccc1Cl` (stereo unspecified) were, in that order, 10 µM, 19.1 µM and 54%.
As to `Cc1ccsc1C(=CCCN1CCC[C@@H](C(=O)O)C1)c1sccc1C` [TIAGABINE], in assay [5], affinity was put at a Ki of 0.0389 µM. The Activity in assay [8] came to 73%.
The compound `O=C(NCc1ccc(Cl)cc1)C(CCO)NCCCC(c1ccccc1)c1ccccc1` (stereo unspecified) showed a Ki in assay [5] of 56.2 µM. In addition, the IC50 in assay [1] was 16.6 µM; in assay [2] it was 23.4 µM.
